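Grown in 96-well plates, cells were treated for 48 hours with each compound at five concentrations. Insufficient inhibition: endpoint recorded as highest concentration tested. GI50 = concentration required for 50% inhibition of growth. The concentration for full growth arrest is given as TGI.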
How the values were obtained:
Assay in all cases: inhibition of tumour cell growth, NCI panel, 48 h; in the data active means GI50 below about 0.43 µM; inactive means the rest
786-0 renal = system: 786-0 renal
A498 renal = system: A498 renal
A549 NSCLC = system: A549 NSCLC
ACHN renal = system: ACHN renal
BT-549 breast = system: BT-549 breast
CAKI-1 renal = system: CAKI-1 renal
CCRF-CEM leukemia = system: CCRF-CEM leukemia
COLO 205 colon = system: COLO 205 colon
DU-145 prostate = system: DU-145 prostate
EKVX NSCLC = system: EKVX NSCLC
HCT-116 colon = system: HCT-116 colon
HCT-15 colon = system: HCT-15 colon
HOP-62 NSCLC = system: HOP-62 NSCLC
HOP-92 NSCLC = system: HOP-92 NSCLC
HS 578T breast = system: HS 578T breast
HT29 colon = system: HT29 colon
K-562 leukemia = system: K-562 leukemia
KM12 colon = system: KM12 colon
LOX IMVI melanoma = system: LOX IMVI melanoma
M14 melanoma = system: M14 melanoma
MALME-3M melanoma = system: MALME-3M melanoma
MCF7 breast = system: MCF7 breast
MDA-MB-231 breast = system: MDA-MB-231 breast
MDA-MB-435 = system: MDA-MB-435
MOLT-4 leukemia = system: MOLT-4 leukemia
NCI-H23 lung = system: NCI-H23 lung
NCI-H460 lung = system: NCI-H460 lung
NCI-H522 lung = system: NCI-H522 lung
NCI/ADR-RES ovarian = system: NCI/ADR-RES ovarian
OVCAR-3 ovarian = system: OVCAR-3 ovarian
OVCAR-4 ovarian = system: OVCAR-4 ovarian
OVCAR-5 ovarian = system: OVCAR-5 ovarian
OVCAR-8 ovarian = system: OVCAR-8 ovarian
PC-3 prostate = system: PC-3 prostate
RPMI-8226 leukemia = system: RPMI-8226 leukemia
RXF 393 renal = system: RXF 393 renal
SF-268 CNS = system: SF-268 CNS
SF-295 CNS = system: SF-295 CNS
SF-539 CNS = system: SF-539 CNS
SK-MEL-2 melanoma = system: SK-MEL-2 melanoma
SK-MEL-28 melanoma = system: SK-MEL-28 melanoma
SK-MEL-5 melanoma = system: SK-MEL-5 melanoma
SK-OV-3 ovarian = system: SK-OV-3 ovarian
SN12C renal = system: SN12C renal
SNB-19 CNS = system: SNB-19 CNS
SR leukemia = system: SR leukemia
SW-620 colon = system: SW-620 colon
T-47D breast = system: T-47D breast
TK-10 renal = system: TK-10 renal
U251 CNS = system: U251 CNS
UACC-257 melanoma = system: UACC-257 melanoma
UACC-62 melanoma = system: UACC-62 melanoma
UO-31 renal = system: UO-31 renal
HCC-2998 colon = system: HCC-2998 colon
HL-60(TB) leukemia = system: HL-60(TB) leukemia
IGROV1 ovarian = system: IGROV1 ovarian

COc1cc2ncc3c(nc4sccn43)c2cc1OC
40.2 µM: TGI (786-0 renal)
41.7 µM: TGI (SR leukemia)
62.8 µM: TGI (SF-295 CNS)
26 µM: TGI (ACHN renal)
21.2 µM: TGI (CAKI-1 renal)
39.3 µM: TGI (U251 CNS)
32.6 µM: TGI (MALME-3M melanoma)
29.5 µM: TGI (TK-10 renal)
39 µM: TGI (HOP-92 NSCLC)
70.4 µM: TGI (OVCAR-4 ovarian)
95 µM: TGI (SK-MEL-28 melanoma)
51.4 µM: TGI (HOP-62 NSCLC)
89.3 µM: TGI (SN12C renal)
89 µM: TGI (RPMI-8226 leukemia)
42 µM: TGI (OVCAR-3 ovarian)
78.3 µM: TGI (MDA-MB-231 breast)
inactive: GI50 (786-0 renal) 14.6 µM | GI50 (A498 renal) 8.01 µM | GI50 (A549 NSCLC) 28.7 µM | GI50 (ACHN renal) 10.2 µM | GI50 (BT-549 breast) 37.1 µM | GI50 (CAKI-1 renal) 2.38 µM | GI50 (CCRF-CEM leukemia) 46.4 µM | GI50 (COLO 205 colon) 38.2 µM | GI50 (DU-145 prostate) 28 µM | GI50 (EKVX NSCLC) 20.7 µM | GI50 (HCT-116 colon) 13.7 µM | GI50 (HCT-15 colon) 11.1 µM | GI50 (HOP-62 NSCLC) 18.7 µM | GI50 (HOP-92 NSCLC) 15.8 µM | GI50 (HS 578T breast) 22.1 µM | GI50 (HT29 colon) 69.7 µM | GI50 (K-562 leukemia) 31.6 µM | GI50 (KM12 colon) 8.38 µM | GI50 (LOX IMVI melanoma) 15.6 µM | GI50 (M14 melanoma) 16.4 µM | GI50 (MALME-3M melanoma) 5.86 µM | GI50 (MCF7 breast) 36.8 µM | GI50 (MDA-MB-231 breast) 24.2 µM | GI50 (MDA-MB-435) 27.2 µM | GI50 (MOLT-4 leukemia) 29.3 µM | GI50 (NCI-H23 lung) 80.4 µM | GI50 (NCI-H460 lung) 13.6 µM | GI50 (NCI-H522 lung) 86.1 µM | GI50 (NCI/ADR-RES ovarian) 93.3 µM | GI50 (OVCAR-3 ovarian) 13.1 µM | GI50 (OVCAR-4 ovarian) 32 µM | GI50 (OVCAR-5 ovarian) 26.8 µM | GI50 (OVCAR-8 ovarian) 38.1 µM | GI50 (PC-3 prostate) 47.9 µM | GI50 (RPMI-8226 leukemia) 26.4 µM | GI50 (RXF 393 renal) > 100 µM | GI50 (SF-268 CNS) > 100 µM | GI50 (SF-295 CNS) 18.3 µM | GI50 (SF-539 CNS) 15.6 µM | GI50 (SK-MEL-2 melanoma) 31.1 µM | GI50 (SK-MEL-28 melanoma) 28.9 µM | GI50 (SK-MEL-5 melanoma) 48.4 µM | GI50 (SK-OV-3 ovarian) 30.1 µM | GI50 (SN12C renal) 22.5 µM | GI50 (SNB-19 CNS) 47.2 µM | GI50 (SR leukemia) 12.4 µM | GI50 (SW-620 colon) 41.9 µM | GI50 (T-47D breast) 29.2 µM | GI50 (TK-10 renal) 11.1 µM | GI50 (U251 CNS) 16.5 µM | GI50 (UACC-257 melanoma) 43.8 µM | GI50 (UACC-62 melanoma) 22.9 µM | GI50 (UO-31 renal) 33.6 µM
78.2 µM: TGI (HCT-116 colon) | TGI (M14 melanoma)
> 100 µM: TGI (A498 renal) | TGI (A549 NSCLC) | TGI (BT-549 breast) | TGI (CCRF-CEM leukemia) | TGI (COLO 205 colon) | TGI (DU-145 prostate) | TGI (EKVX NSCLC) | TGI (HCT-15 colon) | TGI (HS 578T breast) | TGI (HT29 colon) | TGI (K-562 leukemia) | TGI (KM12 colon) | TGI (LOX IMVI melanoma) | TGI (MCF7 breast) | TGI (MDA-MB-435) | TGI (MOLT-4 leukemia) | TGI (NCI-H23 lung) | TGI (NCI-H460 lung) | TGI (NCI-H522 lung) | TGI (NCI/ADR-RES ovarian) | TGI (OVCAR-8 ovarian) | TGI (PC-3 prostate) | TGI (RXF 393 renal) | TGI (SF-268 CNS) | TGI (SK-MEL-2 melanoma) | TGI (SK-MEL-5 melanoma) | TGI (SK-OV-3 ovarian) | TGI (SNB-19 CNS) | TGI (SW-620 colon) | TGI (T-47D breast) | TGI (UACC-257 melanoma) | TGI (UACC-62 melanoma) | TGI (UO-31 renal)
55.2 µM: TGI (SF-539 CNS)
60.5 µM: TGI (OVCAR-5 ovarian)

C=C1[C@@H](O)O[C@H]2[C@H]1C[C@H](OC(C)=O)[C@]13C(=O)O[C@H]4C[C@](C)(O)[C@H]([C@H]41)C31C=C(C)[C@]2(O)O1
95.2 µM: TGI (SN12C renal)
54.7 µM: TGI (MCF7 breast)
> 100 µM: TGI (A549 NSCLC) | TGI (ACHN renal) | TGI (CCRF-CEM leukemia) | TGI (COLO 205 colon) | TGI (HCT-15 colon) | TGI (HL-60(TB) leukemia) | TGI (HOP-92 NSCLC) | TGI (HT29 colon) | TGI (K-562 leukemia) | TGI (KM12 colon) | TGI (LOX IMVI melanoma) | TGI (MDA-MB-231 breast) | TGI (MDA-MB-435) | TGI (MOLT-4 leukemia) | TGI (OVCAR-4 ovarian) | TGI (PC-3 prostate) | TGI (RPMI-8226 leukemia) | TGI (SF-268 CNS) | TGI (SF-295 CNS) | TGI (SK-MEL-28 melanoma) | TGI (SK-OV-3 ovarian) | TGI (SNB-19 CNS) | TGI (SR leukemia) | TGI (SW-620 colon) | TGI (T-47D breast) | TGI (UACC-62 melanoma)
34.6 µM: TGI (CAKI-1 renal)
76.2 µM: TGI (HCC-2998 colon)
71.4 µM: TGI (IGROV1 ovarian)
38.2 µM: TGI (HCT-116 colon)
59.7 µM: TGI (SK-MEL-2 melanoma)
87.2 µM: TGI (UACC-257 melanoma)
inactive: GI50 (786-0 renal) 22.4 µM | GI50 (A549 NSCLC) > 100 µM | GI50 (ACHN renal) 49.8 µM | GI50 (CAKI-1 renal) 0.516 µM | GI50 (CCRF-CEM leukemia) 18.9 µM | GI50 (COLO 205 colon) 48.9 µM | GI50 (HCC-2998 colon) 22.5 µM | GI50 (HCT-116 colon) 19.8 µM | GI50 (HCT-15 colon) 49.2 µM | GI50 (HL-60(TB) leukemia) 61.8 µM | GI50 (HOP-92 NSCLC) > 100 µM | GI50 (HT29 colon) 75.4 µM | GI50 (IGROV1 ovarian) 18.8 µM | GI50 (K-562 leukemia) 53.8 µM | GI50 (KM12 colon) 36.8 µM | GI50 (LOX IMVI melanoma) 29.6 µM | GI50 (MALME-3M melanoma) 16.3 µM | GI50 (MCF7 breast) 25.8 µM | GI50 (MDA-MB-231 breast) 34.9 µM | GI50 (MDA-MB-435) 13.3 µM | GI50 (MOLT-4 leukemia) 80.6 µM | GI50 (NCI-H460 lung) 32.5 µM | GI50 (NCI-H522 lung) 4.53 µM | GI50 (NCI/ADR-RES ovarian) 28 µM | GI50 (OVCAR-3 ovarian) 7.43 µM | GI50 (OVCAR-4 ovarian) > 100 µM | GI50 (OVCAR-5 ovarian) 21.7 µM | GI50 (OVCAR-8 ovarian) 22.7 µM | GI50 (PC-3 prostate) 53.3 µM | GI50 (RPMI-8226 leukemia) 24.2 µM | GI50 (SF-268 CNS) 34.5 µM | GI50 (SF-295 CNS) 4.03 µM | GI50 (SF-539 CNS) 21.1 µM | GI50 (SK-MEL-2 melanoma) 18.6 µM | GI50 (SK-MEL-28 melanoma) 61 µM | GI50 (SK-OV-3 ovarian) > 100 µM | GI50 (SN12C renal) 26.6 µM | GI50 (SNB-19 CNS) > 100 µM | GI50 (SR leukemia) 40.9 µM | GI50 (SW-620 colon) 29.8 µM | GI50 (T-47D breast) > 100 µM | GI50 (U251 CNS) 24.2 µM | GI50 (UACC-257 melanoma) 25.6 µM | GI50 (UACC-62 melanoma) 30.3 µM | GI50 (UO-31 renal) 27.2 µM
0.0269 µM: TGI (EKVX NSCLC)
32.6 µM: TGI (OVCAR-3 ovarian)
58.8 µM: TGI (OVCAR-8 ovarian)
74.1 µM: TGI (UO-31 renal)
96.9 µM: TGI (NCI-H460 lung)
49.1 µM: TGI (786-0 renal)
21.4 µM: TGI (NCI-H522 lung)
64.7 µM: TGI (U251 CNS)
46.1 µM: TGI (MALME-3M melanoma)
52 µM: TGI (SF-539 CNS)
48 µM: TGI (OVCAR-5 ovarian)
80.8 µM: TGI (NCI/ADR-RES ovarian)

— PubChem BioAssay (NCI)
